Assays:
[1] = tested on: wild-type Yarrowia lipolytica strain (PO1f, ATCC MYA-2613); experiment: Growth inhibition and glucose consumption of the parent strain according to furfural concentration (Reference Example 1); type: cell-based
From the text: Confirmation of the degree of growth inhibition according to furfural in a parent strain Prior to the production of furfural-resistant strains, Yarrowia lipolytica PO1f strain having accession number ATCC MYA-2613, which are wild-type Yarrowia lipolytica, was selected as a parent strain, and the degree of growth inhibition and the degree of glucose consumption according to the concentration of furfural in the wild-type Yarrowia lipolytica strain, and the concentrations of furfural and furoic acid in the culture medium according to the cell culture time were confirmed.
Specifically, as the culture medium, a minimal medium (YSC medium (Yeast Synthetic Complete medium)) containing 6.7 g/L yeast nitrogen base (YNB), 20 g/L glucose as a carbon source and supplemented with complete supplement mixture (CSM) or CSM-Leu or CSM-Leu-Ura (MP Biomedicals, Solon, OH, USA) used. Furfural was added to the medium at concentrations of 0.1 g/L, 0.2 g/L, 0.3 g/L, 0.4 g/L or 0.5 g/L, respectively, and the growth rate was compared with that when furfural was not added. The culture was inoculated with the wild-type Yarrowia lipolytica strain with an initial OD600 value of 0.2 in 20 mL of the culture medium in a 100 mL Erlenmeyer flask, and then proceeded with shaking culture at 28° C. at 200 rpm. In this case, the wild-type strain is Yarrowia lipolytica PO1f strain with accession number ATCC MYA-2613. The “OD600” refers to the absorbance or optical density at a wavelength of 600 nm. It is possible to measure the density or concentration of microorganisms or cells in a sample by using the measured OD600.

[2] = tested on: Yarrowia lipolytica strain; details: very low concentration (~0.5 g/L) of furfural; cited from earlier work
[3] = furfural 0.1-0.5 g/L in YSC medium, 20 g/L glucose, 28° C., 200 rpm

In the case of `O=Cc1ccco1` [furfural], the “initial growth of the wild-type strain” value ([1]; 0.2 g/L or more of furfural) is reported as “growth was delayed”, the “growth of the wild-type strain” value ([1]; 0.5 g/L of furfural) is reported as “no growth was observed” and the “growth of the wild-type Yarrowia lipolytica strain as the furfural concentration increased” value [1, 3] is reported as “clearly inhibited”. For the same molecule, the “rate of glucose consumption as the furfural concentration increased” value [1, 3] was “reduced” and the “cell growth of Yarrowia lipolytica strain” value [2] was “significantly inhibited”.

Reference: US20240352401A1, “FURFURAL-RESISTANT STRAIN AND METHOD FOR IMPROVING FURFURAL-RESISTANT OF STRAIN” (Korea Institute of Science and Technology, priority 2023, published 2024)
